Results: patent US20260028336A1 (Arcus Biosciences, Inc., priority 2022, published 2026)

Assays:
Jurkat cells = experiment: IL-2 secretion assay in CD3/CD28-activated Jurkat cells (AlphaLISA); type: cell-based; details: Homo sapiens, CD3/CD28 T Cell Activator, 24 h, IL-2 AlphaLISA
Procedure, shortened: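 Jurkat cells (50,000/well) were preincubated 1 h at 37° C with compound in a 16-point 1:2 series spanning 10 μM to 300 pM final. Cells were then activated with CD3/CD28 T cell activator, and secreted IL-2 was read by AlphaLISA. EC50 came from 4-parameter logistic fits.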

Cbl-b = target: T1, Cbl-b (Homo sapiens, UniProt Q13191); experiment: Cbl-b probe displacement HTRF binding assay; details: 0.4 nM biotinylated Cbl-b, 150 nM BODIPY probe
T1 construct: biotin (biotinylated)
T1 sequence (Q13191 whole entry, species assumed): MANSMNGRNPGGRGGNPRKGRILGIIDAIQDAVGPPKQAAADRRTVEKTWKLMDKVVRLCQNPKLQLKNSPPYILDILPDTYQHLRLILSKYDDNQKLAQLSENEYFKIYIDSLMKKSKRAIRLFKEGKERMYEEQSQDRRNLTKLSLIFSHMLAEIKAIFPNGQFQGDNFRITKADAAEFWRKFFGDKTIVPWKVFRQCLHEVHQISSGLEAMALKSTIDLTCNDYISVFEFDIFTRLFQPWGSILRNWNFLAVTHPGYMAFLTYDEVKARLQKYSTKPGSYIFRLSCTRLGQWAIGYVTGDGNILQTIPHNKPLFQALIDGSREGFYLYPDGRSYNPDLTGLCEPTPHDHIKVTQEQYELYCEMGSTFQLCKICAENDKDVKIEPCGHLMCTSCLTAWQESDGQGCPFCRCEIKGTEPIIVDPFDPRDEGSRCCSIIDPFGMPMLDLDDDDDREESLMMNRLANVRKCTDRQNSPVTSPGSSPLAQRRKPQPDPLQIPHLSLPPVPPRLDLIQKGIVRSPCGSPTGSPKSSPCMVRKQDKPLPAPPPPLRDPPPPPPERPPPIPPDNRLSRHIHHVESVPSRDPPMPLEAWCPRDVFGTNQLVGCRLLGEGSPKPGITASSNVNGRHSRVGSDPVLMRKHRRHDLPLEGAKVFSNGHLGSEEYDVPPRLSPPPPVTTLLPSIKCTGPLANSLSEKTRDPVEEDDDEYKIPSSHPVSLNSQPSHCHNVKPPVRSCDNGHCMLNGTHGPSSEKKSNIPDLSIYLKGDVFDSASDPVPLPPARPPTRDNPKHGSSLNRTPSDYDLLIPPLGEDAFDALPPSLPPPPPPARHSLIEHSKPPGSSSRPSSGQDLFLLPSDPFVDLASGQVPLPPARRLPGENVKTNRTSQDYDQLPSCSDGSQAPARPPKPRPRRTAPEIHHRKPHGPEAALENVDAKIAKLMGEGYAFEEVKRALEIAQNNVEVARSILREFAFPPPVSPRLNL
Procedure, shortened: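 Biotinylated Cbl-b was preincubated with compound for 60 min at room temperature in HEPES/NaCl/Triton/TCEP/BSA buffer. BODIPY probe was added for 15 min, followed by streptavidin-terbium, and the HTRF signal was read. Displacement was normalised to DMSO and no-protein controls, and affinity was obtained from a four-parameter dose-response fit.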

| EC50 (Jurkat cells) [µM] | IC50 (Cbl-b) [µM] | SMILES |
| --- | --- | --- |
| 0.1 to 1 | 0.1 to 1 | C[C@H]1CCCN(Cc2cc3c(C4CC4)cn(-c4cccc(C(F)c5nncn5C)c4)c(=O)c3[nH]2)C1 (stereo partly drawn) [Example 162, 4-cyclopropyl-6-[3-[fluoro-(4-methyl-1,2,4-triazol-3-yl)methyl]phenyl]-2-[[(3S)-3-methylpiperidin-1-yl]methyl]-1H-pyrrolo[2,3-c]pyridin-7-one] |
| < 0.1 | < 0.1 | C[C@H]1CCCN(Cc2cc3c(C4CC4)cn(-c4cccc(C(C)(F)c5nncn5C)c4)c(=O)c3[nH]2)C1 (stereo partly drawn) [Example 163, 4-cyclopropyl-6-[3-[1-fluoro-1-(4-methyl-1,2,4-triazol-3-yl)ethyl]phenyl]-2-[[(3S)-3-methylpiperidin-1-yl]methyl]-1H-pyrrolo[2,3-c]pyridin-7-one] |
| < 0.1 | < 0.1 | CC(c1cccc(-n2cc(C3CC3)c3cc(CN4CCC[C@H](C)C4)[nH]c3c2=O)c1)c1nncn1C (stereo partly drawn) [Example 165, 4-cyclopropyl-2-[[(3S)-3-methylpiperidin-1-yl]methyl]-6-[3-[1-(4-methyl-1,2,4-triazol-3-yl)ethyl]phenyl]-1H-pyrrolo[2,3-c]pyridin-7-one] |

| SMILES | EC50 (Jurkat cells) [µM] | IC50 (Cbl-b) [µM] |
| --- | --- | --- |
| C[C@H]1CCCN(Cc2cc3c(C4CC4)cn(-c4cccc(C(C)(F)c5nccn5C)c4)c(=O)c3[nH]2)C1 (some centres unmarked) [Example 164] | 1 to 5 | 1 to 5 |
